Laboratory results taken from patent US11884671B2, “Purinone compounds and their use in treating cancer” (ASTRAZENECA AB, priority 2018, dated 2024).

Columns and labels:
[1] = target: DNAPK (Homo sapiens (Human), UniProt P78527); assay: DNAPK cellular potency assay (DNA-PK cell), pS2056-DNAPK ELISA in irradiated A549 cells; assay type: cell-based; settings: 8 Gy radiation, arithmetic mean of two or more experiments, read-out: DNA-PK cell pIC50 (converted)
Description: The DNAPK cell ELISA assay was performed in the A549 cell line. A549 cells were cultured in cell media composed of MEM-F12 (Minimum Essential Medium F12 Sigma #D6421), 10% (v/v) Foetal Calf Serum and 1% (v/v) 200 mM L-Glutamine. […] The following day the Greiner ELISA plates were washed 3× with PBS-T and blocked with 3% BSA/PBS for 2 h, before a further 3× wash with PBS-T.
The cell plates were then incubated for 1 h at 37° C. before receiving a radiation dose of 8 Gy (XRAD 320, table height 65). The cells were incubated for a further 1 h before removal of cell media. […] Cell lysates ([…]) were transferred to the DNAPK antibody-coated ELISA plates using a CyBio Felix liquid handling platform, and ELISA plates were incubated at 4° C. overnight.
The following day, ELISA plates were washed 3× with PBS-T and dispensed with in-house pS2056-DNAPK antibody (0.5 μg/mL in 3% BSA/PBS) at 20 ul/well.
The fluorescence intensity of individual wells was determined using a PerkinElmer EnVision plate reader.
(§1) Data was analysed and IC50 values were calculated using Genedata Screener® software (Genedata, Inc., Basel, Switzerland).

[2] = target: Full length human DNAPK protein (Homo sapiens (Human), UniProt P78527); assay: DNAPK enzyme potency assay (DNA-PK enz), TR-FRET; assay type: biochemical; settings: arithmetic mean of two or more experiments, 18 μM ATP; for IC50: read-out: DNA-PK enz pIC50 (converted)
Source text: The following assays were used to measure the effects of the compounds described herein: a) DNAPK enzyme potency assay; b) DNAPK cellular potency assay. During the description of the assays, generally: • i. The following abbreviations have been used; DMSO=Dimethyl Sulphoxide; DTT=Dithiothreitol; EDTA=Ethylenediaminetetraacetic Acid, TR-FRET=Time Resolved Fluorescence Resonance Energy Transfer, ATP=Adenosine triphosphate, DTT=Dithiothreitol, DNA=Deoxyribonucleic acid, HEPES=(2-hydroxyethyl)-1-piperazineethanesulfonic acid • ii. […] Assay a): DNAPK Enzyme Potency Assay (DNA-PK Enz)
The inhibitory activity of compounds against DNAPK was determined by TR-FRET measuring a fluorescent labelled peptide substrate converting to a phosphorylated product. Fluorescently tagged peptide substrate were purchased from Thermo Fisher Scientific. 12 point half-log compound concentration-response curves, with a top concentration of 100 μM were generated from 10 mM stocks of compound solubilised in DMSO using an Echo 555 (Labcyte Inc., Sunnyvale, CA). All assays were preformed in white Greiner 1536 well low volume plates (Greiner Bio-One, UK), in a total reaction volume of 3 μL and 1% (v/v) final DMSO concentration. Enzymes and substrates were added separately to the compound plates and incubated at room temperature. The kinase reaction was then quenched by the addition of 3 μL of stop buffer. Stopped assay plates were read using a BMG Pherastar. IC50 values were calculated using a Genedata Screener® software (Genedata, Inc., Basel, Switzerland).
Full length human DNAPK protein was purified from HeLa cell extract by ion exchange. Initially DNAPK protein was incubated with compound for 30 minutes at room temperature in reaction buffer (50 mM Hepes pH 7.5, 0.01% Brij-35, 10 mM MgCl2, 1 mM EGTA, 1 mM DTT, […] Calf Thymus DNA). The reaction was then initiated by the addition of ATP and fluorescently tagged peptide substrate (Fluorescein-[…], Thermo Fisher Scientific). […] The reaction was incubated for a further hour and the plates were read on a BMG Pherastar.
as §1

| Compound | IC50 [1] | DNA-PK enz pIC50 [2] | IC50 [2] |
| --- | --- | --- | --- |
| CC(=O)N1CCC(n2c(=O)n(C)c3cnc(Nc4cc5ccnnc5cc4C)nc32)CC1 [Example 1, 9-(1-acetylpiperidin-4-yl)-7-methyl-2-((7-methylcinnolin-6-yl)amino)-7,9-dihydro-8H-purin-8-one] | 200 nM | 10.0 | – |
| CC(=O)N1CCC(n2c(=O)n(C)c3cnc(Nc4cc5nccnc5cc4C)nc32)CC1 [Example 2, 9-(1-acetylpiperidin-4-yl)-7-methyl-2-((7-methylquinoxalin-6-yl)amino)-7,9-dihydro-8H-purin-8-one] | 50.1 nM | 9.8 | – |
| CC(=O)N1CCC(n2c(=O)n(C)c3cnc(Nc4cc5cncnc5cc4C)nc32)CC1 [Example 3, 9-(1-acetylpiperidin-4-yl)-7-methyl-2-((7-methylquinazolin-6-yl)amino)-7,9-dihydro-8H-purin-8-one] | 63.1 nM | >10 | – |
| CC(=O)N1CCC(n2c(=O)n(C)c3cnc(Nc4cc5ncc(C)nc5cc4C)nc32)CC1 [Example 4, 9-(1-acetylpiperidin-4-yl)-2-((2,7-dimethylquinoxalin-6-yl)amino)-7-methyl-7,9-dihydro-8H-purin-8-one] | 251 nM | 9.0 | – |
| CC(=O)N1CCC(n2c(=O)n(C)c3cnc(Nc4cc5nc(C)cnc5cc4C)nc32)CC1 [Example 5, 9-(1-acetylpiperidin-4-yl)-2-((3,7-dimethylquinoxalin-6-yl)amino)-7-methyl-7,9-dihydro-8H-purin-8-one] | 100 nM | 9.1 | – |
| Cc1cc2ncccc2cc1Nc1ncc2c(n1)n([C@H]1CC[C@H](O)CC1)c(=O)n2C [Example 6, 9-((1r,4r)-4-hydroxycyclohexyl)-7-methyl-2-((7-methylquinolin-6-yl)amino)-7,9-dihydro-8H-purin-8-one] | 5.01 nM | >10 | – |
| Cc1cc2nnccc2cc1Nc1ncc2c(n1)n([C@H]1CC[C@H](O)CC1)c(=O)n2C [Example 7, 9-((1r,4r)-4-hydroxycyclohexyl)-7-methyl-2-((7-methylcinnolin-6-yl)amino)-7,9-dihydro-8H-purin-8-one] | 50.1 nM | >10 | – |
| Cc1cc2nccc(C)c2cc1Nc1ncc2c(n1)n([C@H]1CC[C@H](O)CC1)c(=O)n2C [Example 8, 2-((4,7-dimethylquinolin-6-yl)amino)-9-((1r,4r)-4-hydroxycyclohexyl)-7-methyl-7,9-dihydro-8H-purin-8-one] | 10 nM | – | < 0.1 nM |
| COc1ccnc2cc(C)c(Nc3ncc4c(n3)n([C@H]3CC[C@H](O)CC3)c(=O)n4C)cc12 [Example 9, 9-((1r,4r)-4-hydroxycyclohexyl)-2-((4-methoxy-7-methylquinolin-6-yl)amino)-7-methyl-7,9-dihydro-8H-purin-8-one] | 7.94 nM | >10 | – |
| Cc1cc2nccnc2cc1Nc1ncc2c(n1)n([C@H]1CC[C@H](O)CC1)c(=O)n2C [Example 10, 9-((1r,4r)-4-hydroxycyclohexyl)-7-methyl-2-((7-methylquinoxalin-6-yl)amino)-7,9-dihydro-8H-purin-8-one] | 10 nM | – | < 0.1 nM |
| Cc1cc2ncccc2cc1Nc1ncc2c(n1)n([C@H]1CC[C@@H](O)CC1)c(=O)n2C [Example 11, 9-((1s,4s)-4-hydroxycyclohexyl)-7-methyl-2-((7-methylquinolin-6-yl)amino)-7,9-dihydro-8H-purin-8-one] | 20 nM | – | 0.158 nM |
| Cc1cc2nnccc2cc1Nc1ncc2c(n1)n([C@H]1CC[C@@H](O)CC1)c(=O)n2C [Example 12, 9-((1s,4s)-4-hydroxycyclohexyl)-7-methyl-2-((7-methylcinnolin-6-yl)amino)-7,9-dihydro-8H-purin-8-one] | 20 nM | >10 | – |
| Cc1cc2nccnc2cc1Nc1ncc2c(n1)n([C@H]1CC[C@@H](O)CC1)c(=O)n2C [Example 13, 9-((1s,4s)-4-hydroxycyclohexyl)-7-methyl-2-((7-methylquinoxalin-6-yl)amino)-7,9-dihydro-8H-purin-8-one] | 15.8 nM | – | 0.2 nM |
| Cc1cc2nccnc2cc1Nc1ncc2c(n1)n([C@H]1CC[C@](C)(O)CC1)c(=O)n2C [Example 18, 9-((1r,4r)-4-hydroxy-4-methylcyclohexyl)-7-methyl-2-((7-methylquinoxalin-6-yl)amino)-7,9-dihydro-8H-purin-8-one] | 50.1 nM | – | 0.251 nM |
| Cc1cc2nccnc2cc1Nc1ncc2c(n1)n([C@H]1CC[C@@](C)(O)CC1)c(=O)n2C [Example 19, 9-((1s,4s)-4-hydroxy-4-methylcyclohexyl)-7-methyl-2-((7-methylquinoxalin-6-yl)amino)-7,9-dihydro-8H-purin-8-one] | 25.1 nM | – | 0.158 nM |
| Cc1cc2nccnc2cc1Nc1ncc2c(n1)n([C@]1(C)CC[C@H](O)CC1)c(=O)n2C [Example 20, 9-((1s,4s)-4-hydroxy-1-methylcyclohexyl)-7-methyl-2-((7-methylquinoxalin-6-yl)amino)-7,9-dihydro-8H-purin-8-one] | 20 nM | 10.0 | – |
| Cc1cc2nnccc2cc1Nc1ncc2c(n1)n([C@H]1CCOC1)c(=O)n2C [Example 21, (S)-7-methyl-2-((7-methylcinnolin-6-yl)amino)-9-(tetrahydrofuran-3-yl)-7,9-dihydro-8H-purin-8-one] | 15.8 nM | >10 | – |
| Cc1cc2nccnc2cc1Nc1ncc2c(n1)n([C@H]1CCOC1)c(=O)n2C [Example 22, (S)-7-methyl-2-((7-methylquinoxalin-6-yl)amino)-9-(tetrahydrofuran-3-yl)-7,9-dihydro-8H-purin-8-one] | 25.1 nM | 9.8 | – |
| Cc1cc2nnccc2cc1Nc1ncc2c(n1)n([C@@H]1CCOC1)c(=O)n2C [Example 23, (R)-7-methyl-2-((7-methylcinnolin-6-yl)amino)-9-(tetrahydrofuran-3-yl)-7,9-dihydro-8H-purin-8-one] | 63.1 nM | 9.4 | – |
| Cc1cc2nccnc2cc1Nc1ncc2c(n1)n([C@@H]1CCOC1)c(=O)n2C [Example 24, (R)-7-methyl-2-((7-methylquinoxalin-6-yl)amino)-9-(tetrahydrofuran-3-yl)-7,9-dihydro-8H-purin-8-one] | 79.4 nM | 9.1 | – |
| Cc1cc2nnccc2cc1Nc1ncc2c(n1)n([C@@H]1CCCOC1)c(=O)n2C [Example 25, (R)-7-methyl-2-((7-methylcinnolin-6-yl)amino)-9-(tetrahydro-2H-pyran-3-yl)-7,9-dihydro-8H-purin-8-one] | 39.8 nM | 9.7 | – |
| Cc1cc2nccnc2cc1Nc1ncc2c(n1)n([C@@H]1CCCOC1)c(=O)n2C [Example 26, (R)-7-methyl-2-((7-methylquinoxalin-6-yl)amino)-9-(tetrahydro-2H-pyran-3-yl)-7,9-dihydro-8H-purin-8-one] | 39.8 nM | 9.8 | – |
| Cc1cc2nnccc2cc1Nc1ncc2c(n1)n([C@H]1CCCOC1)c(=O)n2C [Example 27, (S)-7-methyl-2-((7-methylcinnolin-6-yl)amino)-9-(tetrahydro-2H-pyran-3-yl)-7,9-dihydro-8H-purin-8-one] | 12.6 nM | >10 | – |
